Patent publication US9107411B2, “Indolecarboxamides and benzimidazolecarboxamides as insecticides and acaricides” (BAYER INTELLECTUAL PROPERTY GMBH, priority 2011, dated 2015)
Where two headings read alike, the source gives them in different places.

Experiments:
logP (HPLC-MS) = format: physicochemical
Phaedon cochleariae = experiment: Phaedon test (PHAECO spray treatment); format: in vivo; conditions: application rate 100 g/ha, Chinese cabbage leaf discs, after 7 days; for pest or weed control at 100 g/ha: Phaedon cochleariae, foliar, 168 h, read-out: efficacy in %
Protocol: Phaedon Test ([…] Spray Treatment) Solvent: 78.0 parts by weight of acetone • • 1.5 parts by weight of dimethylformamide Emulsifier: 0.5 part by weight of alkylaryl polyglycol ether To produce an appropriate active ingredient formulation, 1 part by weight of active ingredient is mixed with the stated amounts of solvent and emulsifier, and the concentrate is diluted with emulsifier-containing water to the desired concentration. Leaf discs of Chinese cabbage (Brassica pekinensis) are sprayed with an active ingredient formulation of the desired concentration and, after drying, populated with larvae of the mustard beetle (Phaedon cochleariae). After 7 days, the efficacy in % is determined. 100% means that all of the beetle larvae have been killed; 0% means that none of the beetle larvae have been killed.

[1] = HPLC, reversed-phase column (C18), 43° C., acidic range pH 2.7, EEC directive 79/831 Annex V.A8, two values = both regioisomers (G = N)
[2] = HPLC, reversed-phase column (C18), acidic range pH 2.7, acetonitrile (0.1% formic acid)/water gradient, 43° C., calibration with unbranched alkan-2-ones, read-out: log p
[3] = HPLC, reversed-phase column (C18), acidic range pH 2.7, acetonitrile (0.1% formic acid)/water gradient, 43° C., calibration with unbranched alkan-2-ones

SMILES | log p (logP (HPLC-MS); [1]) | log p (logP (HPLC-MS); [3]) | efficacy in % (Phaedon cochleariae) [%] | also measured
CCn1c(C(=O)NC(c2cccc(C(F)(F)F)c2)C(F)(F)F)cc2cc(CNC(C)=O)c(Cl)cc21 (centres unmarked) [Compound 26, 5-(acetamidomethyl)-6-chloro-1-ethyl-N-{2,2,2-trifluoro-1-[3-(trifluoromethyl)phenyl]ethyl}-1H-indole-2-carboxamide] |  |  |  | chromatographic logP (logP (HPLC-MS); [2]): 3.77; chromatographic logP (logP (HPLC-MS); HPLC-MS): 3.77; pest or weed control at 100 g/ha (Phaedon cochleariae): 100%
CCn1c(C(=O)NC(c2cccc(C(F)(F)F)c2)C(F)(F)F)cc2cc(CNC(=O)C3CC3)c(C(F)(F)F)cc21 (centres unmarked) [Compound 23] |  | 4.37 | 100 | 
CCn1c(C(=O)NC(c2cccc(C(F)(F)F)c2)C(F)(F)F)cc2cc(C(=O)NC(C#N)C(C)C)c(Cl)cc21 (centres unmarked) [Compound 270] |  | 4.37 | 100 | 
CCn1c(C(=O)NC(c2ccc(F)c(F)c2)C(F)(F)F)cc2cc(C(=O)NC(C)C[S+](C)[O-])c(C)cc21 (centres unmarked) [Compound 321] | 2.76 |  |  | 
CCn1c(C(=O)NC(c2cccc(C(F)(F)F)c2)C(F)(F)F)cc2cc(C(=O)NC(C#N)(COC)COC)c(Cl)cc21 (centres unmarked) [Compound 325] | 4.16 |  | 100 | 
CCn1c(C(=O)NC(c2cccc(C(F)(F)F)c2)C(F)(F)F)cc2cc(C(=O)NC(C#N)(CC)CC)c(Cl)cc21 (centres unmarked) [Compound 264] |  | 4.41 | 100 | 
C#CC1(NC(=O)c2cc3cc(C(=O)NC(c4cccc(C(F)(F)F)c4)C(F)(F)F)n(CC)c3cc2Cl)CCC1 (centres unmarked) [Compound 33] |  | 4.20 | 100 | 
CCn1c(C(=O)NC(c2cccc(C(F)(F)F)c2)C(F)(F)F)cc2cc(C(=O)NC(C)CC#N)c(Cl)cc21 (centres unmarked) [Compound 269] |  | 3.78 | 100 | 
CCn1c(C(=O)NC(c2cccc(C(F)(F)F)c2)C(F)(F)F)cc2cc(C(=O)NCC#N)c(Cl)cc21 (centres unmarked) [Compound 21] |  | 3.64 | 100 | 
CCn1c(C(=O)NC(c2cccc(C(F)(F)F)c2)C(F)(F)F)cc2cc(C(=O)NC3(C)CC3C)c(Cl)cc21 (centres unmarked) [Compound 266] |  | 4.41 | 100 | 
CCn1c(C(=O)NC(c2cccc(C(F)(F)F)c2)C(F)(F)F)cc2cc(C(=O)NC(C#N)c3ccccc3)c(Cl)cc21 (centres unmarked) [Compound 318] | 4.37 |  | 100 | 
CCn1c(C(=O)NC(c2cccc(C(F)(F)F)c2)C(F)(F)F)c(Cl)c2cc(C(=O)NC3(C#N)CC3)c(Cl)cc21 (centres unmarked) [Compound 271, 3,6-dichloro-N^5-(1-cyanocyclopropyl)-1-ethyl-N^2-{2,2,2-trifluoro-1-[3-(trifluoromethyl)phenyl]ethyl}-1H-indole-2,5-dicarboxamide] |  |  |  | chromatographic logP (logP (HPLC-MS); [2]): 3.95; chromatographic logP (logP (HPLC-MS); HPLC-MS): 3.95; pest or weed control at 100 g/ha (Phaedon cochleariae): 100%
C=Cn1c(C(=O)NC(c2cccc(C(F)(F)F)c2)C(F)(F)F)cc2cc(C(=O)NC3(C#N)CC3)ccc21 (centres unmarked) [Compound 324] | 3.48 |  |  | 

Continued, in another order:

log p (logP (HPLC-MS); [1]) | log p (logP (HPLC-MS); [3]) | SMILES | efficacy in % (Phaedon cochleariae) [%] | also measured
4.29 |  | CCn1c(C(=O)NC(c2cc(Cl)c(F)c(Cl)c2)C(F)(F)F)cc2cc(C(=O)NC3CC3)c(Cl)cc21 (centres unmarked) [Compound 327] |  | 
3.52 |  | CCn1c(C(=O)NC(c2ccc(F)c(F)c2)C(F)(F)F)cc2cc(C(=O)NC3CC3)c(Cl)cc21 (centres unmarked) [Compound 329] |  | 
4.02 |  | CCn1c(C(=O)NC(c2cc(F)cc(C(F)(F)F)c2)C(F)(F)F)cc2cc(C(=O)NC3(C#N)CC3)c(C)cc21 (centres unmarked) [Compound 331] |  | 
3.36 |  | COC(=O)Cn1c(C(=O)NC(c2cccc(C(F)(F)F)c2)C(F)(F)F)cc2cc(C(=O)NC3(C#N)CC3)c(Cl)cc21 (centres unmarked) [Compound 326] | 100 | 
3.76 |  | CCn1c(C(=O)NC(c2ccc(F)c(C(F)(F)F)c2)C(F)(F)F)nc2cc(C(=O)NC3CC3)c(Br)cc21 (centres unmarked) [Compound 332] |  | 
